# Experimental data from patent US6689773B2, “Uracil substituted phenyl sulfamoyl carboxamides” (BASF Aktiengesellschaft, priority 2000, dated 2004).
# Columns and labels:
# Format in all cases: in vivo
# [1] = test system: DIGSA, Crabgrass, (Hairy) L, Digitaria sanguinalis, (L)Scop; experiment: Preemergence herbicidal evaluation (Example 148); settings: rating scale 0-9, two to four weeks after treatment
# Procedure, shortened: (§1)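 Following sowing, cups received a soil spray of the compound dissolved in aqueous acetone, dosed to about 0.125 to 0.250 kg per hectare. Growth continued in the greenhouse under routine care before visual scoring at two to four weeks.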
# [2] = test system: ZEAMX, Field corn, Zea mays L.; experiment: Preemergence herbicidal evaluation (Example 148); settings: rating scale 0-9, two to four weeks after treatment
# Procedure, shortened: as §1
# [3] = test system: ABUTH, Velvetleaf, Abutilon theophrasti, Medic.; experiment: Preemergence herbicidal evaluation (Example 148); settings: rating scale 0-9, two to four weeks after treatment
# Procedure, shortened: as §1
# [4] = test system: ECHCG, Barnyardgrass, Echinochloa crusgalli, (L.)Beau; experiment: Preemergence herbicidal evaluation (Example 148); settings: rating scale 0-9, two to four weeks after treatment
# Procedure, shortened: as §1
# [5] = test system: CHEAL, Lambsquarters, Chenopodium album, L. Common; experiment: Preemergence herbicidal evaluation (Example 148); settings: rating scale 0-9, two to four weeks after treatment
# Procedure, shortened: as §1
# [6] = test system: AMBEL, Ragweed, Common, Ambrosia artemiisifolia, L.; experiment: Preemergence herbicidal evaluation (Example 148); settings: rating scale 0-9, two to four weeks after treatment
# Procedure, shortened: as §1
# [7] = test system: SETVI, Green foxtail, Setaria viridis, (L.)Beau; experiment: Preemergence herbicidal evaluation (Example 148); settings: rating scale 0-9, two to four weeks after treatment
# Procedure, shortened: as §1
# [8] = test system: XANST, Cocklebur, Xanthium strumariam; experiment: Preemergence herbicidal evaluation (Example 148); settings: rating scale 0-9, two to four weeks after treatment
# Procedure, shortened: as §1
# [9] = test system: IPOHE, Morningglory, Ivyleaf, Ipomoea hederacea, (L)Jacq.; experiment: Preemergence herbicidal evaluation (Example 148); settings: rating scale 0-9, two to four weeks after treatment
# Procedure, shortened: as §1
# [10] = test system: GLXMA, Soybean, Glycine max, (L.) Merr.; experiment: Preemergence herbicidal evaluation (Example 148); settings: rating scale 0-9, two to four weeks after treatment
# Procedure, shortened: as §1
# [11] = test system: TRZAW, Winter wheat, Tritium Aestivum, L. (Winter); experiment: Preemergence herbicidal evaluation (Example 148); settings: rating scale 0-9, two to four weeks after treatment
# Procedure, shortened: as §1
# [12] = test system: ALOMY, Blackgrass, Alopecurus myosuroides; experiment: Preemergence herbicidal evaluation (Example 148); settings: rating scale 0-9, two to four weeks after treatment
# Procedure, shortened: as §1
# [13] = test system: DIGSA, Crabgrass, (Hairy) L, Digitaria sanguinalis, (L)Scop; experiment: Postemergence herbicidal evaluation (Example 147); settings: rating scale 0-9, two to three weeks after treatment
# Procedure, shortened: (§2)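 Greenhouse postemergence test: two-week seedlings sprayed at about 0.016 to 0.032 kg/ha active. Scored visually, 0-9 scale, after two to three weeks.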
# [14] = test system: ZEAMX, Field corn, Zea mays L.; experiment: Postemergence herbicidal evaluation (Example 147); settings: rating scale 0-9, two to three weeks after treatment
# Procedure, shortened: as §2
# [15] = test system: ABUTH, Velvetleaf, Abutilon theophrasti, Medic.; experiment: Postemergence herbicidal evaluation (Example 147); settings: rating scale 0-9, two to three weeks after treatment
# Procedure, shortened: as §2
# [16] = test system: ECHCG, Barnyardgrass, Echinochloa crusgalli, (L.)Beau; experiment: Postemergence herbicidal evaluation (Example 147); settings: rating scale 0-9, two to three weeks after treatment
# Procedure, shortened: as §2
# [17] = test system: CHEAL, Lambsquarters, Chenopodium album, L. Common; experiment: Postemergence herbicidal evaluation (Example 147); settings: rating scale 0-9, two to three weeks after treatment
# Procedure, shortened: as §2
# [18] = test system: AMBEL, Ragweed, Common, Ambrosia artemiisifolia, L.; experiment: Postemergence herbicidal evaluation (Example 147); settings: rating scale 0-9, two to three weeks after treatment
# Procedure, shortened: as §2
# [19] = test system: SETVI, Green foxtail, Setaria viridis, (L.)Beau; experiment: Postemergence herbicidal evaluation (Example 147); settings: rating scale 0-9, two to three weeks after treatment
# Procedure, shortened: as §2
# [20] = test system: XANST, Cocklebur, Xanthium strumariam; experiment: Postemergence herbicidal evaluation (Example 147); settings: rating scale 0-9, two to three weeks after treatment
# Procedure, shortened: as §2
# [21] = test system: IPOHE, Morningglory, Ivyleaf, Ipomoea hederacea, (L)Jacq.; experiment: Postemergence herbicidal evaluation (Example 147); settings: rating scale 0-9, two to three weeks after treatment
# Procedure, shortened: as §2
# [22] = test system: GLXMA, Soybean, Glycine max, (L.) Merr.; experiment: Postemergence herbicidal evaluation (Example 147); settings: rating scale 0-9, two to three weeks after treatment
# Procedure, shortened: as §2
# [23] = test system: TRZAW, Winter wheat, Tritium Aestivum, L. (Winter); experiment: Postemergence herbicidal evaluation (Example 147); settings: rating scale 0-9, two to three weeks after treatment
# Procedure, shortened: as §2
# [24] = test system: ALOMY, Blackgrass, Alopecurus myosuroides; experiment: Postemergence herbicidal evaluation (Example 147); settings: rating scale 0-9, two to three weeks after treatment
# Procedure, shortened: as §2
smiles,measurement,setting,value
Cn1c(C(F)(F)F)cc(=O)n(-c2cc(C(=O)NS(=O)(=O)NC3CCCC3)c(Cl)cc2F)c1=O [Example 78],Preemergence herbicidal rating DIGSA,[1]; rate 0.125 kg/ha,4.0
same,Preemergence herbicidal rating DIGSA,[1]; rate 0.25 kg/ha,8.0
same,Preemergence herbicidal rating ZEAMX,[2]; rate 0.125 kg/ha,0.0
same,Preemergence herbicidal rating ZEAMX,[2]; rate 0.25 kg/ha,1.0
same,Preemergence herbicidal rating ABUTH,[3]; rate 0.125 kg/ha,9.0
same,Preemergence herbicidal rating ABUTH,[3]; rate 0.25 kg/ha,9.0
same,Preemergence herbicidal rating ECHCG,[4]; rate 0.125 kg/ha,4.0
same,Preemergence herbicidal rating ECHCG,[4]; rate 0.25 kg/ha,7.0
same,Preemergence herbicidal rating CHEAL,[5]; rate 0.125 kg/ha,9.0
same,Preemergence herbicidal rating CHEAL,[5]; rate 0.25 kg/ha,9.0
same,Preemergence herbicidal rating AMBEL,[6]; rate 0.125 kg/ha,9.0
same,Preemergence herbicidal rating AMBEL,[6]; rate 0.25 kg/ha,9.0
same,Preemergence herbicidal rating SETVI,[7]; rate 0.125 kg/ha,5.0
same,Preemergence herbicidal rating SETVI,[7]; rate 0.25 kg/ha,7.0
same,Preemergence herbicidal rating XANST,[8]; rate 0.125 kg/ha,9.0
same,Preemergence herbicidal rating XANST,[8]; rate 0.25 kg/ha,9.0
same,Preemergence herbicidal rating IPOHE,[9]; rate 0.125 kg/ha,9.0
same,Preemergence herbicidal rating IPOHE,[9]; rate 0.25 kg/ha,9.0
same,Preemergence herbicidal rating GLXMA,[10]; rate 0.125 kg/ha,3.0
same,Preemergence herbicidal rating GLXMA,[10]; rate 0.25 kg/ha,5.0
same,Preemergence herbicidal rating TRZAW,[11]; rate 0.125 kg/ha,1.0
same,Preemergence herbicidal rating TRZAW,[11]; rate 0.25 kg/ha,1.0
same,Preemergence herbicidal rating ALMOY,[12]; rate 0.125 kg/ha,1.0
same,Preemergence herbicidal rating ALMOY,[12]; rate 0.25 kg/ha,2.0
same,Postemergence herbicidal rating DIGSA,[13]; rate 0.016 kg/ha,5.0
same,Postemergence herbicidal rating DIGSA,[13]; rate 0.032 kg/ha,6.0
same,Postemergence herbicidal rating ZEAMX,[14]; rate 0.016 kg/ha,6.5
same,Postemergence herbicidal rating ZEAMX,[14]; rate 0.032 kg/ha,7.0
same,Postemergence herbicidal rating ABUTH,[15]; rate 0.016 kg/ha,9.0
same,Postemergence herbicidal rating ABUTH,[15]; rate 0.032 kg/ha,9.0
same,Postemergence herbicidal rating ECHCG,[16]; rate 0.016 kg/ha,8.0
same,Postemergence herbicidal rating ECHCG,[16]; rate 0.032 kg/ha,9.0
same,Postemergence herbicidal rating CHEAL,[17]; rate 0.016 kg/ha,7.0
same,Postemergence herbicidal rating CHEAL,[17]; rate 0.032 kg/ha,9.0
same,Postemergence herbicidal rating AMBEL,[18]; rate 0.016 kg/ha,9.0
same,Postemergence herbicidal rating AMBEL,[18]; rate 0.032 kg/ha,9.0
same,Postemergence herbicidal rating SETVI,[19]; rate 0.016 kg/ha,8.0
same,Postemergence herbicidal rating SETVI,[19]; rate 0.032 kg/ha,9.0
same,Postemergence herbicidal rating XANST,[20]; rate 0.016 kg/ha,9.0
same,Postemergence herbicidal rating XANST,[20]; rate 0.032 kg/ha,9.0
same,Postemergence herbicidal rating IPOHE,[21]; rate 0.016 kg/ha,9.0
same,Postemergence herbicidal rating IPOHE,[21]; rate 0.032 kg/ha,9.0
same,Postemergence herbicidal rating GLXMA,[22]; rate 0.016 kg/ha,7.0
same,Postemergence herbicidal rating GLXMA,[22]; rate 0.032 kg/ha,8.0
same,Postemergence herbicidal rating TRZAW,[23]; rate 0.016 kg/ha,5.5
same,Postemergence herbicidal rating TRZAW,[23]; rate 0.032 kg/ha,6.5
same,Postemergence herbicidal rating ALMOY,[24]; rate 0.016 kg/ha,2.0
same,Postemergence herbicidal rating ALMOY,[24]; rate 0.032 kg/ha,2.0
C=CCN(C)S(=O)(=O)NC(=O)c1cc(-n2c(=O)cc(C(F)(F)F)n(C)c2=O)c(F)cc1Cl [Example 59],Preemergence herbicidal rating DIGSA,[1]; rate 0.125 kg/ha,3.0
same,Preemergence herbicidal rating DIGSA,[1]; rate 0.25 kg/ha,7.0
same,Preemergence herbicidal rating ZEAMX,[2]; rate 0.125 kg/ha,0.0
same,Preemergence herbicidal rating ZEAMX,[2]; rate 0.25 kg/ha,2.0
same,Preemergence herbicidal rating ABUTH,[3]; rate 0.125 kg/ha,9.0
same,Preemergence herbicidal rating ABUTH,[3]; rate 0.25 kg/ha,9.0
same,Preemergence herbicidal rating ECHCG,[4]; rate 0.125 kg/ha,0.0
same,Preemergence herbicidal rating ECHCG,[4]; rate 0.25 kg/ha,3.0
same,Preemergence herbicidal rating CHEAL,[5]; rate 0.125 kg/ha,9.0
same,Preemergence herbicidal rating CHEAL,[5]; rate 0.25 kg/ha,9.0
same,Preemergence herbicidal rating AMBEL,[6]; rate 0.125 kg/ha,9.0
same,Preemergence herbicidal rating AMBEL,[6]; rate 0.25 kg/ha,9.0
same,Preemergence herbicidal rating SETVI,[7]; rate 0.125 kg/ha,4.0
same,Preemergence herbicidal rating SETVI,[7]; rate 0.25 kg/ha,9.0
same,Preemergence herbicidal rating XANST,[8]; rate 0.125 kg/ha,0.0
same,Preemergence herbicidal rating XANST,[8]; rate 0.25 kg/ha,9.0
same,Preemergence herbicidal rating IPOHE,[9]; rate 0.125 kg/ha,9.0
same,Preemergence herbicidal rating IPOHE,[9]; rate 0.25 kg/ha,9.0
same,Preemergence herbicidal rating GLXMA,[10]; rate 0.125 kg/ha,2.0
same,Preemergence herbicidal rating GLXMA,[10]; rate 0.25 kg/ha,8.0
same,Preemergence herbicidal rating TRZAW,[11]; rate 0.125 kg/ha,0.0
same,Preemergence herbicidal rating TRZAW,[11]; rate 0.25 kg/ha,0.0
same,Preemergence herbicidal rating ALMOY,[12]; rate 0.125 kg/ha,0.0
same,Preemergence herbicidal rating ALMOY,[12]; rate 0.25 kg/ha,4.0
same,Postemergence herbicidal rating DIGSA,[13]; rate 0.016 kg/ha,4.0
same,Postemergence herbicidal rating DIGSA,[13]; rate 0.032 kg/ha,5.0
same,Postemergence herbicidal rating ZEAMX,[14]; rate 0.016 kg/ha,8.0
same,Postemergence herbicidal rating ZEAMX,[14]; rate 0.032 kg/ha,8.0
same,Postemergence herbicidal rating ABUTH,[15]; rate 0.016 kg/ha,9.0
same,Postemergence herbicidal rating ABUTH,[15]; rate 0.032 kg/ha,9.0
same,Postemergence herbicidal rating ECHCG,[16]; rate 0.016 kg/ha,6.0
same,Postemergence herbicidal rating ECHCG,[16]; rate 0.032 kg/ha,7.0
same,Postemergence herbicidal rating CHEAL,[17]; rate 0.016 kg/ha,7.0
same,Postemergence herbicidal rating CHEAL,[17]; rate 0.032 kg/ha,8.0
same,Postemergence herbicidal rating AMBEL,[18]; rate 0.016 kg/ha,7.0
same,Postemergence herbicidal rating AMBEL,[18]; rate 0.032 kg/ha,9.0
same,Postemergence herbicidal rating SETVI,[19]; rate 0.016 kg/ha,7.0
same,Postemergence herbicidal rating SETVI,[19]; rate 0.032 kg/ha,8.0
same,Postemergence herbicidal rating XANST,[20]; rate 0.016 kg/ha,9.0
same,Postemergence herbicidal rating XANST,[20]; rate 0.032 kg/ha,9.0
same,Postemergence herbicidal rating IPOHE,[21]; rate 0.016 kg/ha,9.0
same,Postemergence herbicidal rating IPOHE,[21]; rate 0.032 kg/ha,9.0
same,Postemergence herbicidal rating GLXMA,[22]; rate 0.016 kg/ha,8.0
same,Postemergence herbicidal rating GLXMA,[22]; rate 0.032 kg/ha,8.5
same,Postemergence herbicidal rating TRZAW,[23]; rate 0.016 kg/ha,4.0
same,Postemergence herbicidal rating TRZAW,[23]; rate 0.032 kg/ha,4.5
same,Postemergence herbicidal rating ALMOY,[24]; rate 0.016 kg/ha,3.0
same,Postemergence herbicidal rating ALMOY,[24]; rate 0.032 kg/ha,4.0
